Data on 3 compounds can be found in PubChem BioAssay AID1259407 (Chemical Carcinogenesis Research Information System (CCRIS), 2018).

Active and inactive are the calls of the source. The rule behind the calls is not given here.

The subject of the series is CCRIS mutagenicity, Ames/micronucleus/aberration tests. Briefly: CCRIS mutagenicity studies.

`C[C@H](CCC(=O)O)[C@H]1CC[C@H]2[C@@H]3CC[C@@H]4C[C@H](O)CC[C@]4(C)[C@H]3CC[C@]12C`: the mutagenic call was “inactive; negative” (Test System: AMES SALMONELLA TYPHIMURIUM, Strain/Indicator: TA97, Metabolic Activation: HAMSTER, LIVER, S-9, AROCLOR 1254 (10 OR 30%), Method: PREINCUBATION); “inactive; negative” (Test System: AMES SALMONELLA TYPHIMURIUM, Strain/Indicator: TA97, Metabolic Activation: NONE, Method: PREINCUBATION); “inactive; negative” (Test System: AMES SALMONELLA TYPHIMURIUM, Strain/Indicator: TA97, Metabolic Activation: RAT, LIVER, S-9, AROCLOR 1254 (10%), Method: PREINCUBATION); “inactive; negative” (Test System: AMES SALMONELLA TYPHIMURIUM, Strain/Indicator: TA97, Metabolic Activation: RAT, LIVER, S-9, AROCLOR 1254 (30%), Method: PREINCUBATION); “inactive; negative” (Test System: AMES SALMONELLA TYPHIMURIUM, Strain/Indicator: TA98, Metabolic Activation: HAMSTER, LIVER, S-9, AROCLOR 1254 (10 OR 30%), Method: PREINCUBATION); “inactive; negative” (Test System: AMES SALMONELLA TYPHIMURIUM, Strain/Indicator: TA98, Metabolic Activation: NONE, Method: FLUCTUATION TEST). The mutagenic call runs as follows: (Test System: AMES SALMONELLA TYPHIMURIUM, Strain/Indicator: TA98, Metabolic Activation: NONE, Method: PREINCUBATION) “inactive; negative”; (Test System: AMES SALMONELLA TYPHIMURIUM, Strain/Indicator: TA98, Metabolic Activation: RAT, LIVER, S-9, AROCLOR 1254 (10%), Method: PREINCUBATION) “inactive; negative”; (Test System: AMES SALMONELLA TYPHIMURIUM, Strain/Indicator: TA98, Metabolic Activation: RAT, LIVER, S-9, AROCLOR 1254 (30%), Method: PREINCUBATION) “inactive; negative”; (Test System: AMES SALMONELLA TYPHIMURIUM, Strain/Indicator: TA98, Method: PREINCUBATION) “inactive; negative”; (Test System: AMES SALMONELLA TYPHIMURIUM, Strain/Indicator: TA100, Metabolic Activation: HAMSTER, LIVER, S-9, AROCLOR 1254 (10 OR 30%), Method: PREINCUBATION) “inactive; negative”; (Test System: AMES SALMONELLA TYPHIMURIUM, Strain/Indicator: TA100, Metabolic Activation: NONE, Method: FLUCTUATION TEST) “inactive; negative”. Besides, the mutagenic call by setting is: (Test System: AMES SALMONELLA TYPHIMURIUM, Strain/Indicator: TA100, Metabolic Activation: NONE, Method: PREINCUBATION) “inactive; negative”; (Test System: AMES SALMONELLA TYPHIMURIUM, Strain/Indicator: TA100, Metabolic Activation: NONE, Method: STANDARD PLATE) “inactive; negative”; (Test System: AMES SALMONELLA TYPHIMURIUM, Strain/Indicator: TA100, Metabolic Activation: RAT, LIVER, S-9, AROCLOR 1254 (10%), Method: PREINCUBATION) “inactive; negative”; (Test System: AMES SALMONELLA TYPHIMURIUM, Strain/Indicator: TA100, Metabolic Activation: RAT, LIVER, S-9, AROCLOR 1254 (30%), Method: PREINCUBATION) “inactive; negative”; (Test System: AMES SALMONELLA TYPHIMURIUM, Strain/Indicator: TA100, Metabolic Activation: RAT, LIVER, S-9, AROCLOR 1254, Method: STANDARD PLATE) “inactive; negative”; (Test System: AMES SALMONELLA TYPHIMURIUM, Strain/Indicator: TA1535, Metabolic Activation: HAMSTER, LIVER, S-9, AROCLOR 1254 (10 OR 30%), Method: PREINCUBATION) “inactive; negative”. Also, the mutagenic call is, setting by setting: (Test System: AMES SALMONELLA TYPHIMURIUM, Strain/Indicator: TA1535, Metabolic Activation: NONE, Method: PREINCUBATION) “inactive; negative”; (Test System: AMES SALMONELLA TYPHIMURIUM, Strain/Indicator: TA1535, Metabolic Activation: RAT, LIVER, S-9, AROCLOR 1254 (10%), Method: PREINCUBATION) “inactive; negative”; (Test System: AMES SALMONELLA TYPHIMURIUM, Strain/Indicator: TA1535, Metabolic Activation: RAT, LIVER, S-9, AROCLOR 1254 (30%), Method: PREINCUBATION) “inactive; negative”; (Test System: E. COLI, Strain/Indicator: WP2 UVRA, Metabolic Activation: HAMSTER, LIVER, S-9, AROCLOR 1254, Method: STANDARD PLATE) “inactive; negative”; (Test System: E. COLI, Strain/Indicator: WP2 UVRA, Metabolic Activation: HAMSTER, LIVER, S-9, Method: STANDARD PLATE) “inactive; negative”; (Test System: E. COLI, Strain/Indicator: WP2 UVRA, Metabolic Activation: MOUSE, LIVER, S-9, AROCLOR 1254, Method: STANDARD PLATE) “inactive; negative”. Further, the mutagenic call is “inactive; negative” (Test System: E. COLI, Strain/Indicator: WP2 UVRA, Metabolic Activation: MOUSE, LIVER, S-9, Method: STANDARD PLATE); “inactive; negative” (Test System: E. COLI, Strain/Indicator: WP2 UVRA, Metabolic Activation: NONE, Method: STANDARD PLATE); “inactive; negative” (Test System: E. COLI, Strain/Indicator: WP2 UVRA, Metabolic Activation: RAT, LIVER, S-9, AROCLOR 1254, Method: STANDARD PLATE); “inactive; negative” (Test System: E. COLI, Strain/Indicator: WP2 UVRA, Metabolic Activation: RAT, LIVER, S-9, Method: STANDARD PLATE); “inactive; negative” (Test System: MOUSE LYMPHOMA, Strain/Indicator: L5178Y (TK+/TK-), Metabolic Activation: RAT, LIVER, S-9, AROCLOR 1254, Method: SUSPENSION/PLATE); “inactive; negative” (Test System: MOUSE LYMPHOMA, Strain/Indicator: L5178Y (TK+/TK-), Metabolic Activation: RAT, LIVER, S-9, Method: SUSPENSION/PLATE).
Consider `CC(=O)Nc1nc2c3cccnc3ccc2n1C`, for which the mutagenic call reads like this: (Test System: AMES SALMONELLA TYPHIMURIUM, Strain/Indicator: TA98(1,8-DNP6), Metabolic Activation: RAT, LIVER, S-9, Method: STANDARD PLATE) “inactive; negative”; (Test System: AMES SALMONELLA TYPHIMURIUM, Strain/Indicator: TA98(NR), Metabolic Activation: RAT, LIVER, S-9, Method: STANDARD PLATE) “active; positive”; (Test System: AMES SALMONELLA TYPHIMURIUM, Strain/Indicator: TA98, Metabolic Activation: RAT, LIVER, S-9, Method: STANDARD PLATE) “active; positive”; (Test System: AMES SALMONELLA TYPHIMURIUM, Strain/Indicator: TA98, Method: STANDARD PLATE) “active; positive”.
Consider `CC[C@@]1(O)C(=O)OCc2c1cc1n(c2=O)Cc2cc3ccccc3nc2-1`, for which the mutagenic call is “active; positive (no dose response; toxicity may play a role)” (End Point: In vitro micronucleus, Test System: Human lymphoblastoid TK6 cells, Metabolic Activation: None); “active; positive” (End Point: In vivo micronucleus, Test System: Peripheral blood reticulocytes, Species: Mouse, Strain/Sex: CD2F1, Route: Oral); “active; positive” (End Point: In vivo micronucleus, Test System: Peripheral blood reticulocytes, Species: Mouse, Strain/Sex: Muta Mouse, Route: Oral); “active; positive” (Test System: CHINESE HAMSTER V-79, Strain/Indicator: V-79 (HPRT)/6-THIOGUANINE, Metabolic Activation: NONE); “inactive; negative” (Test System: LacZ plasmid mouse (C57BL/6J transgenic), Strain/Indicator: LacZ Mutant frequency, Method: Bone marrow and liver harvested 35 days after last dose); “inactive; negative” (Test System: LacZ transgenic mouse (Muta Mouse), Strain/Indicator: LacZ Mutant frequency, Method: Bone marrow and liver harvested 35 days after last dose). The mutagenic call (Test System: LacZ transgenic mouse (Muta Mouse), Strain/Indicator: LacZ Mutant frequency, Method: Liver and kidney harvested 37 days after last dose) was “inactive; negative”.
